The values that follow come from paper PMC5387716, “Discovery of monocarbonyl curcumin-BTP hybrids as STAT3 inhibitors for drug-sensitive and drug-resistant breast cancer therapy” (Scientific Reports, 2017).

For series [1], the system named is implanted human breast tumors (MCF-7). Description: MCF-7 xenograft in BALB/c nude mice. In kind it is in vivo. To be noted: 10 mg/kg ip daily for 21 days. The procedure:
The working solution was prepared in a Cremophor and DMSO mixture (10% Cremophor, 10% DMSO and 80% 1 × PBS) to give a 1 mg/ml solution. Athymic BALB/c nude mice (15–18 g) were injected with human breast tumor MCF-7 cells (3 × 10^6 cells in a volume of 0.2 ml) into the subcutaneous tissue of the right auxiliary region of the mice. Three days after the tumor cell inoculation, the mice were randomly sorted into three groups with six mice per group. The tumor-bearing mice were either given a daily 10 mg/kg ip injection of compound 6b or the vehicle. The treatment was initiated when the tumor burden of the mice reached approximately 50 mm^3. The tumor size was measured by caliper three times a week to document tumor growth and calculated by the formula: length × width × width/2, and the body weight was measured and recorded. Therapeutic efficacy was evaluated based on body weight loss, tumor growth inhibition [determined by using calipers and calculated by the formula: tumor inhibit rate (%) = (tumor volCon − tumor volTre)/tumor volCon] × 100. The body weight inhibitory ratio, BI (%) was calculated as BI (%) = (1 −MT/MC) × 100, where MT and MC were the average body weights of the treated and control groups, respectively. On the 22nd day, all mice were killed, and the tumors were segregated, weighed, and stored in −80 °C for later use. The levels of p-STAT3 in tumor tissues prepared from control or mice treated with 6b were analyzed by western blot assay. Apoptosis was evaluated via the TUNEL assay, and the Ki-67 assay was used to assess cancer cell proliferation.

The test system of series [2] is STAT3. Description: EMSA of STAT3 DNA-binding activity (hSIE probe). The conditions noted are these: nuclear extracts of MCF-7 cells, 24 h. In kind it is cell-based, human. Here is the method: MCF-7 cells were cultured overnight and then treated with compound 6b in fresh regular growth medium for 24 h. The cells were harvested and nuclear extract preparations and EMSA analysis were carried out as previously described. The ^32P-labeled oligonucleotide, hSIE probe, was used to bind STAT3.

Series [3] deals with MCF-7/DOX cells. Description: Colony survival assay, MCF-7/DOX. The conditions noted are these: 24 h treatment, 14 d culture. In kind it is cell-based, human. The procedure:
MCF-7 or MCF-7/DOX cells were cultured a 6-well plate at a density of 800–1,000 cells/well with regular growth medium. Cells were treated for 24 h with the vehicle and 6b at 0.15–1 μM on the following day. Cells were allowed to grow for 10–14 d until colonies were visible. Crystal violet solution (Sigma, St. Louis, MO, USA) was used to stain the colonies for 4 hours and colonies were imaged.

For series [4], the system named is P-gp. Description: Western blot of P-gp. Format: cell-based, human. The conditions noted are these: MCF-7/DOX cells, 24 h. The procedure:
(§1) MCF-7 or MCF-7/DOX cells were incubated with various concentrations of 6b for 24 h. After trypsinization, cells were treated with 1× RIPA lysis buffer (50 mM Tris–HCl, pH 7.4, 150 mM NaCl, 0.25% deoxycholic acid, 1% NP-40, 1 mM EDTA and protease inhibitors) (Amresco, Solon, USA) to extract the total proteins. An aliquot of proteins from the total cell lysates (30 to 60 μg/lane) was separated by sodium dodecyl sulfate (10%) polyacrylamide gel electrophoresis (SDS–PAGE, Bio-Rad Laboratories, Hercules, CA), wet-transferred to NC membrane (Bio-Rad Laboratories, Hercules, CA) and blotted with primary antibodies specific for STAT3, p-STAT3, p-Jak2, Jak2, p-Src, Src, Erk, P-Erk, PARP, cleaved PARP, Bcl-2, Bax, Cyclin D1, P-gp and GAPDH. Bound immuno-complexes were detected using ChemiDOC™ XRS + system (Bio-Rad Laboratories, Hercules, CA).
For orientation: A western blot detects proteins with antibodies after separation by electrophoresis.

Series [5] deals with MCF-7/DOX cells. Description: Flow cytometry of the cell cycle, MCF-7/DOX. To be noted: 24 h. Format: cell-based, human. The procedure:
MCF-7 or MCF-7/DOX cells were plated in 6-well culture plates (1.5 × 10^5 cells per well). After incubation overnight, various concentrations of 6b or curcumin were added and cells were incubated for 24 h. Cells were harvested, washed with cold PBS, and incubated with pre-cooled 70% ethanol for a minimum of 4 h at 4 °C to fix them. The cells were then centrifuged, carefully aspirated from the supernatant, and re-suspended in a propidium iodide (final concentration, 40 μg/ml) and RNase A (final concentration, 100 μg/ml) solution at a final cell density of 0.5 × 10^6 cells/ml. The suspension was incubated at 37 °C for 30 min prior to analysis by flow cytometry.

Series [6] deals with Bax. Description: Western blot of Bax. Format: cell-based, human. To be noted: MCF-7 and MCF-7/DOX cells, 24 h. Here is the method:
as §1

In series [7] the test system is Bcl-2 gene. Description: Quantitative real-time RT-PCR of Bcl-2. In kind it is cell-based, human. The conditions noted are these: 24 h. The procedure: Levels of mRNA expression were analyzed with the RT-PCR assay, with total RNA isolated from MCF-7 or MCF-7/DOX cells using an EASYspin Plus tissue/cell RNA extraction kit (Aidlab Biotechnologies Co. Ltd). RNA was quantified by measuring absorption at 260 nm and 1 μg of RNA was reverse transcribed to cDNA using the Transcriptor First Strand cDNA Synthesis Kit (Roche Diagnostics, Basel, Switzerland). Thermal cycling conditions included 95 °C initial denaturation for 5 min, followed by 40 cycles of denaturation (10 s at 95 °C), annealing (15 s at 60 °C) and extension (15 s at 72 °C with a single fluorescence measurement), a melt curve program (60–95 °C with a 0.11 °C/s heat increase and continuous fluorescence measurement) and a cooling step to 40 °C. The Δ cycle threshold method was used for the calculation of relative differences in mRNA abundance with a LightCycler 480 (Roche Molecular Biochemicals, Mannheim, Germany). The data were normalized to the expression of GAPDH. The results were expressed as fold-changes. The RT-PCR primers that were used in this study are listed in the supporting information.
For orientation: In qPCR the cycle at which signal appears reflects the starting amount.

Series [8] concerns Cyclin D1. The experiment in a line: Western blot of Cyclin D1. Format: cell-based, human. The conditions noted are these: MCF-7 and MCF-7/DOX cells, 24 h. The procedure:
as §1

The test system of series [9] is Jak2. Description: Western blot of p-Jak2. The conditions noted are these: MCF-7 and MCF-7/DOX cells, 24 h. In kind it is cell-based, human. The procedure:
as §1

In the case of `COc1ccc(/C=C/C(=O)N2CCN(C(=O)C3=Cc4cc(Br)ccc4S3(=O)=O)CC2)cc1` [Compound 6b, (E)-1-(4-(5-bromo-1,1-dioxidobenzo[b]thiophene-2-carbonyl)piperazin-1-yl)-3-(4-methoxyphenyl)prop-2-en-1-one], the “Ki-67 immunohistochemical staining in tumor tissues” value in [1] is on record as “suppressed tumor cell proliferation”. Further, the “TUNEL assay of tumor cells” value in series [1] is reported as “induced tumor cell apoptosis”. The “changes in the body weights of the mice” value in series [1] is “no significant changes”. Besides, the “reduction of the weight of the tumor tissues compared with the control” value in series [1] is recorded as 68.2%. In addition, the “p-STAT3 in lysates from the tumor tissues (immunoblotting)” value in [1] (vs control tumors) was “suppression of p-STAT3”. Moreover, the “volumes of the implanted human breast tumors” value in series [1] (vs vehicle) is “significantly reduced”. The “STAT3 DNA-binding activity” value in [2] is reported as “strongly inhibited STAT3 DNA-binding activity in a dose-dependent manner”. In addition, the “clonogenic ability / colony formation” value in series [3] (0.25 μM) is recorded as “significant reduction in clonogenic ability”; in [3] (0.5 μM), “almost a cessation of colony formation”. Besides, the P-gp expression result in series [4] was “decreased P-gp expression in MCF-7/DOX cells in a dose-dependent manner”. For the same compound, the “cells in the Sub-G1 phase” value in series [5] is on record as “significant increase”. Also, the “percentage of cells in the G0/G1 phase” value in [5] was “increased”. Further, the “expression of Bax (protein)” value in series [6] is “increased”. The “decrease in the gene expression level of Bcl-2” value is recorded as 27.5% in series [7] (MCF-7/DOX cells, 1.0 μM); 43.5% in [7] (MCF-7/DOX cells, 2.0 μM); 71.0% in series [7] (MCF-7/DOX cells, 4.0 μM); 11.7% in series [7] (MCF-7 cells, 1.0 μM); 45.8% in [7] (MCF-7 cells, 2.0 μM); 61.2% in [7] (MCF-7 cells, 4.0 μM). Moreover, the “Bcl-2 gene level (in words)” value in series [7] (MCF-7 and MCF-7/DOX cells) is “decreased in a dose-dependent manner”. For the same compound, the “expression of Cyclin D1 (protein)” value in [8] was “inhibited”. For the same compound, in [9], the “phosphorylation of Jak2” value is reported as “inhibited”.
